Structures can show the parent of a compound that is named as a salt.
Target: T1, His6-AspH315–758 (human aspartate/asparagine-β-hydroxylase, AspH) (Homo sapiens, UniProt Q12797)
T1 construct: N-Terminally His6-tagged human AspH315–758 (His6-AspH315–758) was produced in E. coli BL21 (DE3) cells; made in house; host or cells: E. coli BL21 (DE3), pET-28a(+) vector
T1 sequence (Q12797 315-758): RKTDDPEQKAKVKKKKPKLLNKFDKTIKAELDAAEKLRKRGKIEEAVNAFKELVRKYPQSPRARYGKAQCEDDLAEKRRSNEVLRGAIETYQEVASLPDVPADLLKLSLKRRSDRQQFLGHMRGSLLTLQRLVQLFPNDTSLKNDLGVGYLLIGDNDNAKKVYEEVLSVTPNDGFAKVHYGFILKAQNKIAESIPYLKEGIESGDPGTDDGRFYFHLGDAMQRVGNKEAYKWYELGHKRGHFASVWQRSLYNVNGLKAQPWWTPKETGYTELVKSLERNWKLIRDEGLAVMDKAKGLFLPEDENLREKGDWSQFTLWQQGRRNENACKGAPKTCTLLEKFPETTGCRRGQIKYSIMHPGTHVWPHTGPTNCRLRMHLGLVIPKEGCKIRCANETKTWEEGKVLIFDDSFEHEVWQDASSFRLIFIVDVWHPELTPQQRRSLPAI
Assay: SPE-MS AspH inhibition assay (LOPAC screen at fixed 20 μM and IC50 dose-response), hydroxylation of cyclic peptide hFX-CP101–119
Type: biochemical
Details: not given

| SMILES | Plate 2 (% conversion) [%] | % conversion [%] | inhibition at 20 µM [%] | Plate 1 (% conversion) [%] | Plate 1 (% inhibition) [%] |
| --- | --- | --- | --- | --- | --- |
| CCCN1CCc2cccc3c2[C@H]1Cc1ccc(O)c(O)c1-3.Cl [R(-)-Propylnorapomorphine hydrochloride] | 7.83 | – | – | – | – |
| Br.CCCN(CCC)[C@@H]1CCc2cccc(O)c2C1 [R-(+)-8-Hydroxy-DPAT hydrobromide] | 39.31 | – | – | – | – |
| C#CCN[C@H](C)Cc1ccccc1.Cl [R-(-)-Desmethyldeprenyl hydrochloride] | 39.05 | – | – | – | – |
| Nc1c(S(=O)(=O)O)cc(Nc2ccc(Nc3nc(Cl)nc(Nc4cccc(S(=O)(=O)O)c4)n3)c(S(=O)(=O)O)c2)c2c1C(=O)c1ccccc1C2=O [Reactive Blue 2, reference compound] | – | 3.94 | 95.3 | – | – |
| Cc1cccc(-c2[nH]ncc2-c2ccc3ncccc3n2)n1 [RepSox] | 40.48 | – | – | – | – |
| CCCN(CCC)CCc1cccc2c1CC(=O)N2 [Ropinirole hydrochloride] | – | 31.94 | – | – | – |
| CC[C@H](CO)Nc1nc(NCc2ccccc2)c2ncn(C(C)C)c2n1 [Roscovitine] | – | – | – | 40.73 | -14.45 |
| C=C(C)[C@H]1Cc2c(ccc3c2O[C@@H]2COc4cc(OC)c(OC)cc4[C@@H]2C3=O)O1 [Rotenone] | – | 46.53 | – | – | – |
| CC(=O)c1c(O)c(C)c(O)c(Cc2c(O)c3c(c(C(=O)/C=C/c4ccccc4)c2O)OC(C)(C)C=C3)c1O [Rottlerin] | – | 14.64 | 64 | – | – |
| CNCC[C@H](Oc1ccc(C(F)(F)F)cc1)c1ccccc1.Cl [S-(+)-Fluoxetine hydrochloride] | 45.11 | – | – | – | – |
| Cc1cc(NC(=O)Nc2ccc3c(ccn3C)c2)sn1 [SB 204741] | – | – | – | 37.70 | -5.45 |
| CC#CCOC(=O)c1c(C)nc2sc3c(c2c1N)CCC(O)C3 (stereo not shown) [SB 205384] | – | 39.48 | – | – | – |
| Cn1ccc2cc3c(cc21)CCN3C(=O)Nc1cccnc1 [SB 206553 hydrochloride] | – | 28.82 | – | – | – |

Same assay, conditions: 20 µM

| SMILES | Plate 2 (% inhibition) [%] |
| --- | --- |
| CCCN1CCc2cccc3c2[C@H]1Cc1ccc(O)c(O)c1-3.Cl [R(-)-Propylnorapomorphine hydrochloride] | 84.00 |
| C#CCN[C@H](C)Cc1ccccc1.Cl [R-(-)-Desmethyldeprenyl hydrochloride] | -9.24 |
| Cc1cccc(-c2[nH]ncc2-c2ccc3ncccc3n2)n1 [RepSox] | -13.51 |
| CNCC[C@H](Oc1ccc(C(F)(F)F)cc1)c1ccccc1.Cl [S-(+)-Fluoxetine hydrochloride] | -27.34 |

Same assay, conditions: LOPAC Plate 4, compound at 20 uM

| SMILES | % inhibition [%] |
| --- | --- |
| COC1(C2=NCCN2)COc2ccccc2O1.Cl (stereo not shown) [RX 821002 hydrochloride] | -13.78 |
| CNc1cc(NS(=O)(=O)c2ccc(N)cc2)nc(NC)n1.Cl.Cl [Ro 04-6790 dihydrochloride] | 35.85 |
| O=C(c1cc(O)c(O)c([N+](=O)[O-])c1)c1ccccc1F [Ro 41-0960, reference compound] | 97.80 |
| N.N.N.N.N.N.N.N.N.N.N.N.N.N.[Cl-].[Cl-].[Cl-].[Cl-].[Cl-].[Cl-].[O-2].[O-2].[Ru+3].[Ru+3].[Ru+4] [Ruthenium red] | -14.56 |
| CC1CCN(CC[C@H]2CCCN2S(=O)(=O)c2cccc(O)c2)CC1.Cl [SB 269970 hydrochloride] | -11.63 |

Same assay, conditions: LOPAC Plate 4, compound at 20 uM, substrate conversion

| SMILES | % conversion [%] |
| --- | --- |
| COC1(C2=NCCN2)COc2ccccc2O1.Cl (stereo not shown) [RX 821002 hydrochloride] | 41.17 |
| O=C(c1ccc(OCCN2CCCCC2)cc1)c1c(-c2ccc(O)cc2)sc2cc(O)ccc12 [Raloxifene hydrochloride] | 40.15 |
| CNC(=C[N+](=O)[O-])NCCSCc1ccc(CN(C)C)o1 [Ranitidine hydrochloride] | 37.20 |
| COc1ccccc1OCC(O)CN1CCN(CC(=O)Nc2c(C)cccc2C)CC1 (stereo not shown) [Ranolazine dihydrochloride] | 41.52 |
| Oc1ccc(/C=C/c2cc(O)cc(O)c2)cc1 [Resveratrol] | 34.33 |
| CC1=C(/C=C/C(C)=C/C=C/C(C)=C/C(=O)O)C(C)(C)CCC1 [Retinoic acid] | 30.58 |
| NC(=O)c1ncn([C@@H]2O[C@H](CO)[C@@H](O)[C@H]2O)n1 [Ribavirin] | 38.92 |
| C1COC(NC(C2CC2)C2CC2)=N1 [Rilmenidine hemifumarate] | 24.79 |
| Nc1nc2ccc(OC(F)(F)F)cc2s1 [Riluzole] | 38.21 |
| Cc1nc2sccn2c(=O)c1CCN1CCC(=C(c2ccc(F)cc2)c2ccc(F)cc2)CC1 [Ritanserin] | 37.56 |
| CC(NCCc1ccc(O)cc1)C(O)c1ccc(O)cc1 (stereo not shown) [Ritodrine hydrochloride] | 37.24 |
| CNc1cc(NS(=O)(=O)c2ccc(N)cc2)nc(NC)n1.Cl.Cl [Ro 04-6790 dihydrochloride] | 24.24 |
| O=C(c1cc(O)c(O)c([N+](=O)[O-])c1)c1ccccc1F [Ro 41-0960, reference compound] | 3.09 |
| COc1ccc(C2CNC(=O)C2)cc1OC1CCCC1 (stereo not shown) [Rolipram] | 37.72 |
| O=c1c2ccccc2nc2n1CCc1c-2[nH]c2ccccc12 [Rutaecarpine] | 29.23 |
| N.N.N.N.N.N.N.N.N.N.N.N.N.N.[Cl-].[Cl-].[Cl-].[Cl-].[Cl-].[Cl-].[O-2].[O-2].[Ru+3].[Ru+3].[Ru+4] [Ruthenium red] | 41.44 |
| CC(C)(C)NC[C@H](O)COc1nsnc1N1CCOCC1.O=C(O)/C=C\C(=O)O [S(-)-Timolol maleate] | 29.54 |
| CC1CCN(CC[C@H]2CCCN2S(=O)(=O)c2cccc(O)c2)CC1.Cl [SB 269970 hydrochloride] | 40.44 |

Same assay, conditions: LOPAC Plate 4, compound at 20 uM; read-out: % inhibition

| SMILES | inhibition at 20 µM [%] |
| --- | --- |
| O=C(c1ccc(OCCN2CCCCC2)cc1)c1c(-c2ccc(O)cc2)sc2cc(O)ccc12 [Raloxifene hydrochloride] | -10.8 |
| CNC(=C[N+](=O)[O-])NCCSCc1ccc(CN(C)C)o1 [Ranitidine hydrochloride] | -2.13 |
| COc1ccccc1OCC(O)CN1CCN(CC(=O)Nc2c(C)cccc2C)CC1 (stereo not shown) [Ranolazine dihydrochloride] | -14.8 |
| CC1=C(/C=C/C(C)=C/C=C/C(C)=C/C(=O)O)C(C)(C)CCC1 [Retinoic acid] | 17.2 |
| NC(=O)c1ncn([C@@H]2O[C@H](CO)[C@@H](O)[C@H]2O)n1 [Ribavirin] | -7.18 |
| Nc1nc2ccc(OC(F)(F)F)cc2s1 [Riluzole] | -5.09 |
| CC(NCCc1ccc(O)cc1)C(O)c1ccc(O)cc1 (stereo not shown) [Ritodrine hydrochloride] | -2.24 |
| COc1ccc(C2CNC(=O)C2)cc1OC1CCCC1 (stereo not shown) [Rolipram] | -3.65 |

Same assay, conditions: LOPAC compound at 20uM, plate 2; conversion of substrate peptide

| SMILES | Plate 2 (% conversion) [%] |
| --- | --- |
| CC(C)NC[C@H](O)c1ccc(O)c(O)c1.O=C(O)C(O)C(O)C(=O)O [R(-)-Isoproterenol (+)-bitartrate] | 5.85 |
| CC1=C(/C=C/C(C)=C/C=C/C(C)=C/C(=O)Nc2ccc(O)cc2)C(C)(C)CCC1 [Retinoic acid p-hydroxyanilide] | 25.03 |
| C[C@@](Cc1ccc(O)c(O)c1)(NN)C(=O)O [S-(-)-Carbidopa] | 7.52 |
| Cc1nn(-c2ccccc2)c(C)c1/C=N/N1CCN(Cc2ccccc2)CC1 [SANT-1] | 42.39 |

Same assay, conditions: LOPAC compound at 20uM, plate 2; normalised to DMSO and 2,4-PDCA controls

| SMILES | Plate 2 (% inhibition) [%] |
| --- | --- |
| CC(C)NC[C@H](O)c1ccc(O)c(O)c1.O=C(O)C(O)C(O)C(=O)O [R(-)-Isoproterenol (+)-bitartrate] | 89.92 |
| Br.CCCN(CCC)[C@@H]1CCc2cccc(O)c2C1 [R-(+)-8-Hydroxy-DPAT hydrobromide] | -10.03 |
| CC1=C(/C=C/C(C)=C/C=C/C(C)=C/C(=O)Nc2ccc(O)cc2)C(C)(C)CCC1 [Retinoic acid p-hydroxyanilide] | 32.63 |
| C[C@@](Cc1ccc(O)c(O)c1)(NN)C(=O)O [S-(-)-Carbidopa] | 84.92 |
| Cc1nn(-c2ccccc2)c(C)c1/C=N/N1CCN(Cc2ccccc2)CC1 [SANT-1] | -19.21 |

Same assay, conditions: LOPAC compound at 20uM, plate 3; conversion of substrate peptide

| SMILES | Plate 3 (% conversion) [%] |
| --- | --- |
| CN(C)CCc1c[nH]c2ccc(Cn3cncn3)cc12.O=C(O)c1ccccc1 [Rizatriptan benzoate salt] | 37.82 |
| CC(C)Cc1ccc([C@H](C)C(=O)O)cc1 [S(+)-Ibuprofen] | 38.99 |
| O=[N+]([O-])c1ccc(CSc2ncnc3c2ncn3[C@@H]2O[C@H](CO)[C@@H](O)[C@H]2O)cc1 [S-(4-Nitrobenzyl)-6-thioinosine] | 36.51 |
| CSC(=N)N.CSC(=N)N.O=S(=O)(O)O [S-Methylisothiourea hemisulfate] | 35.95 |
| N[C@@H](CCC(=O)N[C@@H](CSN=O)C(=O)NCC(=O)O)C(=O)O [S-Nitrosoglutathione] | 32.88 |
| Cc1cc2c(cc1Cl)N(C(=O)Nc1ccc(Oc3cccnc3C)nc1)CC2.Cl.Cl.O [SB 242084 dihydrochloride hydrate] | 37.92 |

Same assay, conditions: LOPAC compound at fixed 20 uM; plate 1, normalised to DMSO and 2,4-PDCA controls

| SMILES | Plate 1 (% inhibition) [%] |
| --- | --- |
| COC(=O)[C@H]1[C@H]2C[C@@H]3c4[nH]c5cc(OC)ccc5c4CCN3C[C@H]2C[C@@H](OC(=O)c2cc(OC)c(OC)c(OC)c2)[C@@H]1OC [Reserpine] | -13.78 |
| CC(C)NC[C@H](O)COc1ccc(CC(N)=O)cc1 [S(-)-Atenolol] | -5.71 |
| Brc1ccc([C@H]2CN3CCSC3=N2)cc1.O=C(O)C(=O)O [S(-)-p-Bromotetramisole oxalate] | 75.43 |
| [N-]=[N+]=Nc1ccc(C(=O)CSC[C@H](NC(=O)CC[C@H](N)C(=O)O)C(=O)NCC(=O)O)cc1 [S-(p-Azidophenacyl)glutathione] | -2.24 |
| Cl.Cn1ccc2cc(NC(=O)Nc3cccnc3)ccc21 [SB 200646 hydrochloride] | -6.42 |
| Oc1ccc(-c2nc(-c3ccncc3)c(-c3ccc(F)cc3)[nH]2)cc1 [SB 202190] | -5.28 |
| CC[C@H](NC(=O)c1c(C)c(-c2ccccc2)nc2ccccc12)c1ccccc1 [SB 222200] | -26.34 |

Same assay, conditions: LOPAC compound at fixed 20 uM; substrate conversion, plate 1

| SMILES | Plate 1 (% conversion) [%] |
| --- | --- |
| COC(=O)[C@H]1[C@H]2C[C@@H]3c4[nH]c5cc(OC)ccc5c4CCN3C[C@H]2C[C@@H](OC(=O)c2cc(OC)c(OC)c(OC)c2)[C@@H]1OC [Reserpine] | 40.50 |
| CC(C)NC[C@H](O)COc1ccc(CC(N)=O)cc1 [S(-)-Atenolol] | 37.79 |
| Brc1ccc([C@H]2CN3CCSC3=N2)cc1.O=C(O)C(=O)O [S(-)-p-Bromotetramisole oxalate] | 10.54 |
| [N-]=[N+]=Nc1ccc(C(=O)CSC[C@H](NC(=O)CC[C@H](N)C(=O)O)C(=O)NCC(=O)O)cc1 [S-(p-Azidophenacyl)glutathione] | 36.62 |
| Cl.Cn1ccc2cc(NC(=O)Nc3cccnc3)ccc21 [SB 200646 hydrochloride] | 38.03 |
| Oc1ccc(-c2nc(-c3ccncc3)c(-c3ccc(F)cc3)[nH]2)cc1 [SB 202190] | 37.64 |
| CC[C@H](NC(=O)c1c(C)c(-c2ccccc2)nc2ccccc12)c1ccccc1 [SB 222200] | 44.72 |

Same assay, conditions: read-out: Inhibition at 20 µM [%]

| SMILES | inhibition at 20 µM [%] |
| --- | --- |
| Nc1c(S(=O)(=O)O)cc(Nc2ccc(Nc3nc(Cl)nc(Nc4cccc(S(=O)(=O)O)c4)n3)c(S(=O)(=O)O)c2)c2c1C(=O)c1ccccc1C2=O [Reactive Blue 2, reference compound] | 95.3 |

Reference: publication PMC7251097, “Aspartate/asparagine-β-hydroxylase: a high-throughput mass spectrometric assay for discovery of small molecule inhibitors” (Scientific Reports, 2020)
